In data set [1] the test system is human Peripheral blood mononuclear cells (PBMCs). In words: Cytokine restoration assay in human PBMCs (IL-2, TNF-α) under NECA. The format is cell-based. The settings on record: PBMC, NECA 5 μM, anti CD3/28 Dynabeads, 48 hours. From the text: The ability of the invention compounds disclosed herein to restore the cytokines (IL-2 and TNF-α) release under adenosine agonist (NECA) environment evaluated using human Peripheral blood mononuclear cells (PBMCs). Peripheral blood was collected from healthy adult individuals in vacutainer tube. Peripheral blood mononuclear cells (PBMCs) were isolated via density gradient centrifugation, which uses Ficoll (Histopaque buffer) combined with short, low-speed centrifugation, to separate different cell populations. Diluted defibrinated blood was layered on a Ficoll and centrifuged at 1800 rpm for 20 minutes at 22° C. Differential migration of cells during centrifugation results in the formation of layers containing different cell types. The bottom layer contains erythrocytes. Remaining cells (i.e., lymphocytes, monocytes, and platelets) that are not dense enough to penetrate the Ficoll media layers (densities of 1.0770 g/ml), forms a buffy coat at the interface between the upper plasma layer and the Ficoll media layer. After carefully collected the buffy coat excess of platelets, Ficoll and plasma were removed by washing it with isotonic sterile phosphate buffered saline (PBS) and resulting cell pellet was resuspended in RPMI media with 5% FBS an P/S. The isolated PBMCs were allowed to be conditioned for an hour at 37° C. in a CO2 incubator. These cells were subsequently used for specific downstream assay. Isolated PBMC (3×10^5 cells/200 μl) were plated in 96 well microtiter plate in RPMI media with 5% FBS in presence of 100 units of penicillin plus 100 μg/ml streptomycin. NECA was added at a final concentration of 5 μM, control wells were maintained without NECA suppression (i.e., no NECA control). The assay plates were incubated at 37° C. for 4 hours in a CO2 incubator. Various concentrations of test compounds were added into respective wells in triplicates. Pre-washed anti CD3/28 Dynabeads (2.5 μL) was added for CD4 and CD8 + T-cell stimulation (to obtain a bead-to-cell ratio of 1:1). The assay plate was incubated at 37° C. in 5% CO2 and 20% ambient O2 maximum for 48 hours. At the end of 48 hours, the activated PBMC were harvested, and culture supernatants were used directly for further analysis. Forty-eight hours post treatment, 15 μL of cell-free supernatant was collected and assayed for secreted IL2 using the human Interleukin 2 (hIL2)—LANCE Ultra Detection Kit (Perkin Elmer). Similarly, level of soluble Tumor Necrosis Factor alpha (TNFα) was determined using human TNFα LANCE Ultra Detection Kit (Perkin Elmer). T-FRET signal was measured with Tecan spark multimode plate reader. Data was analyzed by graph-pad prism9. EC50 s of the compounds of Formula (I) in restoration of cytokine release under adenosine agonist from the human PBMCS are presented in Table 2

The nature of data set [2]: Plasma protein binding, equilibrium dialysis, human. Conditions: plasma (10% plasma, extrapolated to 100% plasma), 18 hours at 37° C. It counts as in vitro ADME. The method, then:
(§1) Protein binding is measured using the equilibrium dialysis technique. Compound is added to 10% plasma giving a concentration of 10 μM and dialysed with isotonic buffer for 18 hours at 37° C. The plasma and buffer solutions are analysed using generic LC UV/MS and the first apparent binding constant for the compound derived. The binding constant is then used to determine the % free in 100% plasma
(§2) The percentage of plasma bound/unbound fraction preparation was calculated as follows
(§3) [formula] [formula] where, • Tc=Total plasma concentration was determined by the calculated concentration on the plasma side of the chamber • Fc=[…] was determined by the calculated concentration on the buffer side of the chamber • To=Total compound concentration determined before analysis.

The test system of the next data set is Dog hepatocytes. In words: Metabolic stability and intrinsic clearance in dog hepatocytes (with IVIVE). The format is in vitro ADME. Conditions: Dog; for Predicted CLh: IVIVE from hepatocyte CLint; for Hepatocyte Clint: Table 6 (IVIVE). The method, then: (§4) The metabolic stability was expressed as the percentage of parent remaining is calculated from the peak area ratio of NCE remaining after incubation (tx) compared to the time zero (t0) incubation. The percentage of parent test compound remaining at each time point was calculated by comparing the peak area ratio of test compound after incubation (tx) with peak area of time zero (t0) incubation. Similarly, half-life (t½) was calculated using following equation:
(§5) [formula] The intrinsic clearance (Clint) was calculated using the following equations:
(§6) [formula] Scaling factors to represent […] million cells/gm liver and liver/kg body wt.

Assay in data set [3]: as above
The format is in vitro ADME. The settings on record: Dog hepatocytes. The method, then:
as §4, §5, §6

For the next data set, the target named is T1, hERG potassium channel (Homo sapiens, UniProt Q12809).
T1 construct: a Chinese Hamster Ovary cell line stably expressing the full-length hERG potassium channel; expressed in transfected cells; host or cells: Chinese Hamster Ovary cell line
In words: hERG inhibition assay, Qpatch HTX automated electrophysiology. It counts as cell-based. The settings on record: CHO cell line stably expressing hERG; whole-cell patch clamp; room temperature. The method, then: The representative compounds of formula I were tested for inhibition of the human ether a go-go related gene (hERG) K+ channel using Qpatch HTX automated electrophysiology. 6-Point concentration-response curves were generated using three-fold serial dilutions from a maximum final test concentration of […] and the results are presented in Table 3.
Compounds were solubilised to 100 mM in DMSO before dilution in HBPS to 100 μM. […] Electrophysiological recordings were made from a Chinese Hamster Ovary cell line stably expressing the full-length hERG potassium channel. Single cell ionic currents were measured in whole-cell patch clamp configuration at room temperature (21-23° C.) using the Qpatch HTX platform (Sophion). Intracellular solution contained (mM): 120 KF, 20 KCl, 10 EGTA, 10 HEPES and was buffered to pH 7.3. […] Cells were clamped at a holding potential of −80 mV. Cells were stepped to +20 mV for 2 s then −40 mV for 3 s before returning to the holding potential. This sweep was repeated 10 times at 10 s intervals. hERG currents were measured from the tail step and referenced to the holding current. Compounds were then incubated for 2 minutes prior to a second measurement of ion channel current using an identical pulse train.

Data set [4] in a line: Metabolic stability and intrinsic clearance in human hepatocytes (with IVIVE). The format is in vitro ADME. The settings on record: Human hepatocytes. The method, then:
as §4, §5, §6

The subject of a further data set is Human hepatocytes. The description is as above. It counts as in vitro ADME. Conditions: Human; for Predicted CLh: IVIVE from hepatocyte CLint; for Hepatocyte Clint: Table 6 (IVIVE). The method, then: as §4, §5, §6
Data set [5] in a line: Plasma protein binding, equilibrium dialysis, dog. It counts as in vitro ADME. Conditions: plasma (10% plasma, extrapolated to 100% plasma), Beagle plasma, 18 hours at 37° C. The method, then:
as §1, §2, §3

Data set [6] can be described thus: Metabolic stability and intrinsic clearance in rat hepatocytes (with IVIVE). The settings on record: Rat hepatocytes. It counts as in vitro ADME. The method, then:
as §4, §5, §6

A further data set concerns Rat hepatocytes. Described as above. The format is in vitro ADME. The settings on record: Rat; for Predicted CLh: IVIVE from hepatocyte CLint; for Hepatocyte Clint: Table 6 (IVIVE). The method, then: as §4, §5, §6
Setting [7] is: read-out: IL-2 restoration EC50.
Where [8] appears, read: read-out: TNF-α restoration EC50.

These results are taken from patent US12577247B2 (BUGWORKS RESEARCH, INC., priority 2021, dated 2026).

Like-named read-outs stand apart in the source and are kept apart here.

T1 sequence (Q12809 whole entry): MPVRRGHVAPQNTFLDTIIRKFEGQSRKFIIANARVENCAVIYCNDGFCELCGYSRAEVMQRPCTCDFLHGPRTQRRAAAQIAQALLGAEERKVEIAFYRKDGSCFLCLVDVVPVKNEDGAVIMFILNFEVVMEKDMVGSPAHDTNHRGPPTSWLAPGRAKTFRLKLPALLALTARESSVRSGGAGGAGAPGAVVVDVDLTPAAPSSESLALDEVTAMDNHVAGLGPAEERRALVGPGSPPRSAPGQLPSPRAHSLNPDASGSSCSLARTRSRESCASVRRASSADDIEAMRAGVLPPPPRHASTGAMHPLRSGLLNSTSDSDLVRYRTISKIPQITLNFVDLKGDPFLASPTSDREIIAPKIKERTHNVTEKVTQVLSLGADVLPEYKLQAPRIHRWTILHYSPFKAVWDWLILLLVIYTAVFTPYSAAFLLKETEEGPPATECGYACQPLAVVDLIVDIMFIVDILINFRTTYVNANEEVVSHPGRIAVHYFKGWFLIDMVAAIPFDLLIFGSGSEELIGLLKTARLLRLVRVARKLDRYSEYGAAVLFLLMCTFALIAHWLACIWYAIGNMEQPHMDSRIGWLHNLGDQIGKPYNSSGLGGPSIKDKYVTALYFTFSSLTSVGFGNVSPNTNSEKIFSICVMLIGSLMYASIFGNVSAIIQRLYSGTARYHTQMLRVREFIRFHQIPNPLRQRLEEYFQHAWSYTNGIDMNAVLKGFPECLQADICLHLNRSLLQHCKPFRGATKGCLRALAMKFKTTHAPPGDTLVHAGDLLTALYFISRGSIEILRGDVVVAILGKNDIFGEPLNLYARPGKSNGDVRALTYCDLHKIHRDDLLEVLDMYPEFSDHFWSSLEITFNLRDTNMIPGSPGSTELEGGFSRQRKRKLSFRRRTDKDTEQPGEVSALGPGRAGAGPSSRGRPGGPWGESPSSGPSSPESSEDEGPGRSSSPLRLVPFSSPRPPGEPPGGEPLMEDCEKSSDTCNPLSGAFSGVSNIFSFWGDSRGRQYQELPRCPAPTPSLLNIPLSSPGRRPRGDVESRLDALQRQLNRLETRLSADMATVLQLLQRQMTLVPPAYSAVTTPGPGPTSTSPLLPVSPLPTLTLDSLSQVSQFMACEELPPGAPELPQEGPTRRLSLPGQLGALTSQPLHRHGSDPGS

Consider `CCc1c(C)nn2c(N)c(C#N)c(NCCc3ccn(C4(CO)CC4)n3)nc12` [Example 39, 7-amino-3-ethyl-5-((2-(1-(1-(hydroxymethyl)cyclopropyl)-1H-pyrazol-3-yl)ethyl)amino)-2-methylpyrazolo[1,5-a] pyrimidine-6-carbonitrile], for which the figures for the EC50 in data set [1] (setting [7]) and in [1] (setting [8]) were 4.2 nM and 2.3 nM, respectively. Also, the figures for the fraction unbound at 18 h, 10 µM in data set [2] and in [5] were 0.0913 and 0.156, respectively. For the same molecule, the “Predicted CLh” value with Dog hepatocytes was 18 mL/min/kg; with Human hepatocytes, 12 mL/min/kg; in the data set with Rat hepatocytes, 23 mL/min/kg. For the same molecule, the “Hepatocyte Clint” value with Dog hepatocytes is 10.8 μl/min/10^6; in data set [4], less than 8.2 µL/min/1e6 cells; with Human hepatocytes, less than 8.2 μl/min/10^6; with Rat hepatocytes it was less than 8.2 μl/min/10^6. The hepatocyte CLint at 0.5 μM is 10.8 µL/min/1e6 cells in [3] and less than 8.2 µL/min/1e6 cells in [6]. This molecule showed an IC50 at hERG potassium channel greater than 100000 nM.

As for `Cc1cccc(CCNc2nc3c(C)c(C)nn3c(N)c2C#N)n1` [Example 13, 7-amino-5-((2-(6-methylpyridin-2-yl)ethyl)amino)-2,3-dimethylpyrazolo[1,5-a]pyrimidine-6-carbonitrile], the EC50 in [1] (setting [7]) is 5.5 nM; in data set [1] (setting [8]), 5.2 nM. Also, the fraction unbound at 18 h, 10 µM in data set [2] is 0.05; in data set [5], 0.09. The figures for the “Predicted CLh” value in the data set with Dog hepatocytes, in the data set with Human hepatocytes and in the data set with Rat hepatocytes were 17 mL/min/kg, 12 mL/min/kg and 41 mL/min/kg, respectively. Besides, the “Hepatocyte Clint” value with Dog hepatocytes is 9.5 μl/min/10^6; in data set [4] it was less than 8.2 µL/min/1e6 cells; in the data set on Human hepatocytes, less than 8.2 μl/min/10^6; with Rat hepatocytes, 34 μl/min/10^6. For the same molecule, the hepatocyte CLint at 0.5 μM in data set [3] was determined as 9.5 µL/min/1e6 cells; in data set [6] it was 34 µL/min/1e6 cells. The IC50 on hERG potassium channel was greater than 100000 nM.

`CCc1c(C)nn2c(N)c(C#N)c(NCCc3ccn(C4COCC4CO)n3)nc12` (single isomer, unassigned; (-)) [Example 122b, (−)-7-amino-3-ethyl-5-((2-(1-(4-(hydroxymethyl)tetrahydrofuran-3-yl)-1H-pyrazol-3-yl)ethyl)amino)-2-methyl pyrazolo[1,5-a]pyrimidine-6-carbonitrile]: the EC50 came out at 1.4 nM in data set [1] (setting [7]) and 1.2 nM in data set [1] (setting [8]). For the same molecule, the fraction unbound at 18 h, 10 µM in data set [2] was 0.117; in data set [5], 0.15. The “Predicted CLh” value in the data set on Dog hepatocytes is reported as 10 mL/min/kg; in the data set with Human hepatocytes, 8.6 mL/min/kg; in the data set on Rat hepatocytes it was 16 mL/min/kg. For the same molecule, the “Hepatocyte Clint” value is less than 4.1 μl/min/10^6 in the data set on Dog hepatocytes, less than 4.1 µL/min/1e6 cells in data set [4], less than 4.1 μl/min/10^6 with Human hepatocytes and 4.7 μl/min/10^6 with Rat hepatocytes. In addition, the figures for the hepatocyte CLint at 0.5 μM in [3] and in data set [6] were less than 4.1 µL/min/1e6 cells and 4.7 µL/min/1e6 cells, respectively. The same molecule came in with an IC50 on hERG potassium channel greater than 100000 nM.
